According to ChEMBL document CHEMBL1148901, “07H239-A, a new cytotoxic eremophilane sesquiterpene from the marine-derived Xylariaceous fungus LL-07H239” (J Nat Prod, 2004):
≈ marks a conversion by molar mass, not a printed value.

Columns and labels:
Assay type in all cases: functional, cell-based
HCT-15 = experiment: Cytotoxicity against human HCT15 cells
LNCaP = experiment: Cytotoxicity against human LNCAP cells
SK-BR-3 = experiment: Cytotoxicity against human SK-BR-3 cells
COLO 205 = experiment: Cytotoxicity against human COLO205 cells
[1] = Cytotoxicity against human NEC cells
PC-3 = experiment: Cytotoxicity against human PC3 cells
SW948 = experiment: Cytotoxicity against human SW948 cells
MCF7 = experiment: Cytotoxicity against human MCF7 cells
SW-620 = experiment: Cytotoxicity against human SW620 cells
[2] = Cytotoxicity against human A2780S cells; details: A2780
Caco-2 = experiment: Cytotoxicity against human Caco-2 cells
[3] = Cytotoxicity against human A2780DDP cells
DU-145 = experiment: Cytotoxicity against human DU145 cells
LX-1 = experiment: Cytotoxicity against human LX1 cells
A549 = experiment: Cytotoxicity against human A549 cells
[4] = Cytotoxicity against human LOX cells
[5] = Cytotoxicity against human LS 174T cells; details: LS174T
[6] = Cytotoxicity against human CCL228 cells
CCRF-CEM = experiment: Cytotoxicity against human CCRF-CEM cells
[7] = Cytotoxicity against human […] cells
T47D = experiment: Cytotoxicity against human T47D cells
CX-1 = experiment: Cytotoxicity against human CX-1 cells

Q: With C=C(C=O)[C@@H]1C[C@@]2(C)C(=CC1=O)[C@H](OC(=O)/C=C/C=C/C(C)CC(C)CC)CC[C@@H]2C(=O)O (relative stereo) as the compound, how does the IC50 (HCT-15) read?
A: Its IC50 is 4.08 mg/L (≈ 8.94 µM).

Q: And the IC50 (LNCaP)?
A: Its IC50 is 3.06 mg/L (≈ 6.7 µM).

Q: What about the IC50 (SK-BR-3) of the same compound?
A: Its IC50 is 3.53 mg/L (≈ 7.73 µM).

Q: What about the IC50 (COLO 205) of the same compound?
A: The IC50 was 3.41 mg/L (≈ 7.47 µM).

Q: And the IC50 [1]?
A: Its IC50 is 3.38 mg/L (≈ 7.4 µM).

Q: What about the IC50 (PC-3) of the same compound?
A: Its IC50 is 3.59 mg/L (≈ 7.86 µM).

Q: What about the IC50 (SW948) of the same compound?
A: Its IC50 is 3.09 mg/L (≈ 6.77 µM).

Q: And the IC50 (MCF7)?
A: The IC50 was 2.83 mg/L (≈ 6.2 µM).

Q: And the IC50 (SW-620)?
A: Its IC50 is 3.6 mg/L (≈ 7.88 µM).

Q: And the IC50 [2]?
A: Its IC50 is 3.09 mg/L (≈ 6.77 µM).

Q: What about the IC50 (Caco-2) of the same compound?
A: Its IC50 is 3.25 mg/L (≈ 7.12 µM).

Q: And the IC50 [3]?
A: Its IC50 is 3.01 mg/L (≈ 6.59 µM).

Q: What about the IC50 (DU-145) of the same compound?
A: The IC50 was 3.06 mg/L (≈ 6.7 µM).

Q: What about the IC50 (LX-1) of the same compound?
A: The IC50 was 4.16 mg/L (≈ 9.11 µM).

Q: What about the IC50 (A549) of the same compound?
A: The IC50 was 3.95 mg/L (≈ 8.65 µM).

Q: And the IC50 [4]?
A: Its IC50 is 3.43 mg/L (≈ 7.51 µM).

Q: What about the IC50 [5] of the same compound?
A: The IC50 was 3.29 mg/L (≈ 7.21 µM).

Q: And the IC50 [6]?
A: Its IC50 is 3.04 mg/L (≈ 6.66 µM).

Q: And the IC50 (CCRF-CEM)?
A: Its IC50 is 0.88 mg/L (≈ 1.93 µM).

Q: What about the IC50 [7] of the same compound?
A: Its IC50 is 2.47 mg/L (≈ 5.41 µM).

Q: What about the IC50 (T47D) of the same compound?
A: Its IC50 is 3.5 mg/L (≈ 7.67 µM).

Q: And the IC50 (CX-1)?
A: The IC50 was 3.21 mg/L (≈ 7.03 µM).
